Data as given in patent US20130288897A1, “SYNERGISTIC PESTICIDAL COMPOSITIONS” (Dow AgroSciences LLC, priority 2012, published 2013).

Columns and labels:
Format in all cases: in vivo
[1] = system: cotton aphid (CA) Aphis gossypii; assay: Cotton aphid track-sprayer test on cotton: Compound A with glufosinate (Liberty) and AMS, rates 0.4, 0.1 and 0.025 g/Ha (Example XVIII); details: AMS 18 g/L, no insecticide, no Lib.
Description: (§1) Glyphosate resistant cotton plants (Gossypium hirsutum, cv ‘DP493’) were trimmed to 1 true leaf and infested with mixed stages of cotton aphid (CA) Aphis gossypii 24 hours prior to application. Mixed developmental stage CA were infested onto the upper surface of each treated leaf by transferring infested foliage from an insectary colony. Each plant was infested with approximately equal numbers of CA based on visual estimation of aphid density on the infested material. Infested plants were held in the growth chamber (L:D 16:8 and 25° C.). Glufosinate (Liberty®, Bayer CropScience, Monheim am Rhein, Germany) was mixed with water at a rate equivalent to 5 ml/L (0.4 qt/Ac). […] High rate Compound A concentrations were created by diluting Compound A technical material with acetone to achieve a 20 ppm solution. […] […] […] Nozzle height above the canopy was held constant at ca. 30 cm. Plants were evaluated after 3 days from the time of infestation by counting all live cotton aphids on each plant.

[2] = system: cotton aphid (CA) Aphis gossypii; assay: Cotton aphid track-sprayer test on cotton: Compound A or imidacloprid with Durango (glyphosate) or Durango Blank and AMS (Example XVI); details: average of 5 reps
Description: as §1, with “24 h” for “24 hours”, “C.). Glyphosate (Durango®, Dow AgroSciences, LLC, Indianapolis, Ind.)” for “C.). Glufosinate (Liberty®, Bayer CropScience, Monheim am Rhein, Germany)”, “to 15” for “to 5”, “ml/L (1.2” for “ml/L (0.4”, “qt/Ac). […] A glyphosate free formulation of Durango® was prepared using these same mixing instructions.” for “qt/Ac).”, “a 10” for “a 20”
[…] Percent control for all treatments was calculated using the rep average for the untreated plants.

[3] = system: cotton aphid (CA) Aphis gossypii; assay: Cotton aphid track-sprayer test on cotton: Compound A or imidacloprid with glufosinate (Liberty) and AMS (Example XVII); details: AMS 18 mg/ml, no insecticide, no glufosinate
Description: as §1, with “h” for “hours”, “10” for “20”
TABLE 6 contains the calculated Colby values for combinations of treatments as well as the outcome of statistical evaluations between predicted (Colby) and actual measured values. These T-test statistics were only calculated for the 0.2 and 0.05 g/Ha rates. […] These same trends were apparent when Compound A was applied with both glufosinate and AMS.

`N.N.O=S(=O)(O)O` [AMS, ammonium sulfate] was tested, and the “% Control (Negatives to zero) Ave” value [1] was 13.2%, the “% control Ave” value ([2]; AMS 18 g/L alone, 0 g insecticide/Ha, block of Durango treatments) was −7.0% and the “% control Ave” value ([2]; AMS 18 g/L alone, no insecticide, block of Durango Blank treatments) was 13.3%. For the same compound, the “% control Ave” value ([2]; AMS 18 g/L with Durango Blank 0.015 ml/ml, no insecticide) was 26.5% and the “% control AVE” value [3] was 4.5%.
